Source: US12036230B2, “PTEN inhibitors for treatment and prevention of bone marrow loss” (NISIBIS, LLC-S, priority 2020, dated 2024)
Read-outs that look alike come from different tables or passages of the source. Numbered stars: 1 amine (or outer) side, 2 acyl side, 3 side chain; on linkers, the order of the positions; unused ones are H or OH. Bridge positions count the residues as written; N and C are the ends. Square brackets hold non-standard residues; d marks the D form. Peptide text beside a SMILES is read from it. Orn = NCCC[C@H](N)C(=O)O; X1 = O=C(CCC[*:2])[*:1]; Mpa = O=C(O)CCS

Biological target: T1, Human recombinant PTEN (Homo sapiens, UniProt P60484)
T1 construct: host or cells: Escherichia coli
Assay: PTEN inhibitor screen: conversion of DiFMUP to DiFMU by recombinant PTEN, spectrofluorometric
Assay type: biochemical
Method: Candidate PTEN inhibitor compounds were identified and screened for PTEN inhibition in vitro. Human recombinant PTEN purified from Escherichia coli was assayed for conversion of synthetic phosphotyrosine analog 6,8-difluoro-4-methylumbelliferyl phosphate (DiFMUP) to 6,8-difluoro-7-hydroxy-4-methylcoumarin (DiFMU) in the presence of the various candidate PTEN inhibitors. The reaction was carried out at 37° C. for 1 hour in a reaction mixture containing 100 μM of DiFMUP, 50 mM Tris-HCl (pH 8.5), 0.01% bovine serum albumin, 1 mM dithiothreitol, and 2 mM ethylenediaminetetraacetic acid. PTEN activity was measured by spectrofluorometric quantitation of increasing DiFMU over time.

[1] = 100 μM DiFMUP, 37° C., 1 hour, pH 8.5, read-out: IC50
[2] = candidate PTEN inhibitor at 10 μM, 100 μM DiFMUP, 37° C., 1 hour, pH 8.5, read-out: % Inhibition
[3] = candidate PTEN inhibitor at 10 μM, 100 μM DiFMUP, 37° C., 1 hour, pH 8.5

T1 sequence (P60484 whole entry): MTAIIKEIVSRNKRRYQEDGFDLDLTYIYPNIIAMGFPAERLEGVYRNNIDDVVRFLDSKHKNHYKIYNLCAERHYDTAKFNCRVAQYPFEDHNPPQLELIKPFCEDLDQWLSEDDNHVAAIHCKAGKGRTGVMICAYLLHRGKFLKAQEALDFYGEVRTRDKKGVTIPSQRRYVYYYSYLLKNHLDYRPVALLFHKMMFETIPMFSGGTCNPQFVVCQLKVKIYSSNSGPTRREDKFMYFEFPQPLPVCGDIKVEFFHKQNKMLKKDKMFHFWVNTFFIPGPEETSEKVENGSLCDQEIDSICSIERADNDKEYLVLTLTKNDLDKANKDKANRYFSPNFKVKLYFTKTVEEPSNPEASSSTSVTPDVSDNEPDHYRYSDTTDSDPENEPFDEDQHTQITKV

Row | Compound | IC50 [1] [µM] | inhibition at 10 µM [2] [%] | % Inhibition [3] [%] | IC50 [µM] | inhibition at 10 µM (pH 8.5) [%]
1 | CCc1c(Cl)c(O)c(Cl)c(O)c1C(=O)O[C@H]1[C@H](O)[C@H](OC)[C@H](OC/C2=C\C=C\C[C@H](O)/C(C)=C/[C@H](CC)[C@@H](O[C@@H]3OC(C)(C)[C@@H](OC(=O)C(C)C)[C@H](O)[C@@H]3O)/C(C)=C/C(C)=C/C[C@@H]([C@@H](C)O)OC2=O)O[C@@H]1C [fidaxomicin] | > 10 | 11 | – | – | –
2 | CO[C@H]1C[C@@H]2CC[C@@H](C)[C@@](O)(O2)C(=O)C(=O)N2CCCC[C@H]2C(=O)O[C@H]([C@H](C)C[C@@H]2CC[C@@H](O)[C@H](OC)C2)CC(=O)[C@H](C)/C=C(\C)[C@@H](O)[C@@H](OC)C(=O)[C@H](C)C[C@H](C)/C=C/C=C/C=C/1C [sirolimus] | > 10 | 3 | – | – | –
3 | C#C[C@]1(O)CC[C@H]2[C@@H]3CCC4=CC(=O)CC[C@@H]4[C@H]3C(=C)C[C@@]21CC [etonogestrel] | > 10 | 2 | – | – | –
4 | CCCCCCCC/C=C\CCCCCCCC(=O)O[C@H](COC(=O)CCCCCCCCCCCCCCC)COP(=O)(O)OCC(O)CO (mixture of isomers) [1-palmitoyl-2-oleoyl-sn-glycero-3-(phospho-rac-(1-glycerol))] | 1.79 | 85 | – | – | –
5 | CC[C@H](C)[C@@H]1NC(=O)[C@H](Cc2ccc(OC)cc2)NC(=O)CCCSC[C@@H](C(=O)N2CCC[C@H]2C(=O)N[C@@H](CC(C)C)C(=O)NCC(N)=O)NC(=O)[C@H](CC(N)=O)NC(=O)[C@H](CCC(N)=O)NC1=O [carbetocin] (Y(Me)IQNCPLG-NH2; linker N-5 via X1) | > 10 | 1 | – | – | –
6 | hyaluronic acid | > 10 | – | 2 | – | –
7 | COc1ccc(CC2c3cc(OC)c(OC)cc3CC[N+]2(C)CCC(=O)OCCCCCOC(=O)CC[N+]2(C)CCc3cc(OC)c(OC)cc3C2Cc2ccc(OC)c(OC)c2)cc1OC (stereo not shown) [atracurium besylate] | > 10 | 16 | – | – | –
8 | Clc1ccc(C(c2ccccc2Cl)C(Cl)Cl)cc1 (stereo not shown) [mitotane] | > 10 | 13 | – | – | –
9 | CCOc1ccc(C[C@H]2NC(=O)CCSSC[C@@H](C(=O)N3CCC[C@H]3C(=O)N[C@@H](CCCN)C(=O)NCC(N)=O)NC(=O)[C@H](CC(N)=O)NC(=O)[C@H]([C@@H](C)O)NC(=O)[C@H]([C@@H](C)CC)NC2=O)cc1 [atosiban] ([Mpa][dY](Et)ITNCP[Orn]G-NH2; disulfide 1-6) | – | 12 | – | > 10 | –
10 | CCC[C@H](NC(=O)[C@@H]1[C@H]2CCC[C@H]2CN1C(=O)[C@@H](NC(=O)[C@@H](NC(=O)c1cnccn1)C1CCCCC1)C(C)(C)C)C(=O)C(=O)NC1CC1 [telaprevir] | – | – | – | > 10 | 3
11 | CC(=O)O[C@H]1C[C@@H]2CC[C@@H]3[C@H](CC[C@@]4(C)[C@H]3C[C@H]([N+]3(C)CCCCC3)[C@@H]4OC(C)=O)[C@@]2(C)C[C@@H]1[N+]1(C)CCCCC1 [pancuronium] | > 10 | 11 | – | – | –
12 | C=C1CC[C@H]2[C@@H](/C=C(\C)C(=O)[C@@]3(OC(C)=O)C[C@H](C)[C@H](OC(=O)c4ccccc4)[C@@H]3[C@H]1OC(C)=O)C2(C)C [diacetyl benzoyl lathyrol] | > 10 | – | 25 | – | –
13 | CO[C@H]1C[C@@H]2CC[C@@H](C)[C@@](O)(O2)C(=O)C(=O)N2CCCC[C@H]2C(=O)O[C@H]([C@H](C)C[C@@H]2CC[C@@H](OCCO)[C@H](OC)C2)CC(=O)[C@H](C)/C=C(\C)[C@@H](O)[C@@H](OC)C(=O)[C@H](C)C[C@H](C)/C=C/C=C/C=C/1C [Everolimus] | > 10 | 33 | – | – | –
14 | O=C1CCCC(=O)C1C(=O)c1ccc(C(F)(F)F)cc1[N+](=O)[O-] [nitisinone] | > 10 | 1 | – | – | –
15 | C[C@@H]1C/C=C/C=C/C=C/C=C/[C@H](O[C@@H]2O[C@H](C)[C@@H](O)[C@H](N)[C@@H]2O)C[C@@H]2O[C@](O)(C[C@@H](O)C[C@H]3O[C@@H]3/C=C/C(=O)O1)C[C@H](O)[C@H]2C(=O)O [natamycin] | > 10 | 3 | – | – | –
16 | Candicidin | 1.63 | – | 91 | – | –
17 | C[C@H](N)C(=O)NCC(=O)N[C@H]1CSSC[C@@H](C(=O)O)NC(=O)[C@H](CO)NC(=O)[C@H]([C@@H](C)O)NC(=O)[C@H](Cc2ccccc2)NC(=O)[C@H]([C@@H](C)O)NC(=O)[C@H](CCCCN)NC(=O)[C@H](Cc2c[nH]c3ccccc23)NC(=O)[C@H](Cc2ccccc2)NC(=O)[C@H](Cc2ccccc2)NC(=O)[C@H](CC(N)=O)NC(=O)[C@H](CCCCN)NC1=O [somatostatin] | – | – | – | > 10 | 5

Second part, led by results:

Row | IC50 [1] [µM] | inhibition at 10 µM [2] [%] | % Inhibition [3] [%] | Compound | IC50 [µM] | inhibition at 10 µM (pH 8.5) [%]
18 | > 10 | 24 | – | C[C@@H]1CC(=O)NN=C1c1ccc(NN=C(C#N)C#N)cc1 [Levosimendan] | – | –
19 | > 10 | 37 | – | O=C(O)CN(CC(=O)O)Cc1cc2c(cc1O)Oc1cc(O)c(CN(CC(=O)O)CC(=O)O)cc1C21OC(=O)c2ccccc21 [Oftasceine] | – | –
20 | > 10 | 24 | – | CC(C)c1nc(CN(C)C(=O)N[C@@H](CCN2CCOCC2)C(=O)N[C@H](CC[C@H](Cc2ccccc2)NC(=O)OCc2cncs2)Cc2ccccc2)cs1 [Cobicistat] | – | –
21 | > 10 | 13 | – | Cc1cc2nc3c(=O)[nH]c(=O)nc-3n(C[C@H](O)[C@H](O)[C@H](O)COP(=O)(O)OP(=O)(O)OC[C@H]3O[C@@H](n4cnc5c(N)ncnc54)[C@H](O)[C@@H]3O)c2cc1C [flavin adenine dinucleotide] | – | –
22 | 0.34 | 92 | – | O=C(OC[C@H]1O[C@@H](OC(=O)c2cc(O)c(O)c(OC(=O)c3cc(O)c(O)c(O)c3)c2)[C@H](OC(=O)c2cc(O)c(O)c(OC(=O)c3cc(O)c(O)c(O)c3)c2)[C@@H](OC(=O)c2cc(O)c(O)c(OC(=O)c3cc(O)c(O)c(O)c3)c2)[C@@H]1OC(=O)c1cc(O)c(O)c(OC(=O)c2cc(O)c(O)c(O)c2)c1)c1cc(O)c(O)c(OC(=O)c2cc(O)c(O)c(O)c2)c1 [tannic acid] | – | –
23 | 5.71 | – | 98 | Verteporfin | – | –
24 | 4.41 | 79 | – | Cc1cc(-c2ccc(/N=N/c3c(S(=O)(=O)O)cc4cc(S(=O)(=O)O)cc(N)c4c3O)c(C)c2)ccc1/N=N/c1c(S(=O)(=O)O)cc2cc(S(=O)(=O)O)cc(N)c2c1O [trypan blue free acid] | – | –
25 | > 10 | 4 | – | CC(C)c1c(C(=O)Nc2ccccc2)c(-c2ccccc2)c(-c2ccc(F)cc2)n1CC[C@@H](O)C[C@@H](O)CC(=O)O [atorvastatin] | – | –
26 | > 10 | 5 | – | CC(C)(C)CC(C)(C)c1cc(Cc2cc(C(C)(C)CC(C)(C)C)cc(-n3nc4ccccc4n3)c2O)c(O)c(-n2nc3ccccc3n2)c1 [bisoctrizole] | – | –
27 | > 10 | 12 | – | Cc1ccccc1-c1cc(N2CCN(C)CC2)ncc1N(C)C(=O)C(C)(C)c1cc(C(F)(F)F)cc(C(F)(F)F)c1 [netupitant] | – | –
28 | > 10 | 19 | – | CCC1=C[C@@H]2CN(C1)Cc1c([nH]c3ccccc13)[C@@](C(=O)OC)(c1cc3c(cc1OC)N(C)[C@H]1[C@@](O)(C(=O)OC)[C@H](OC(C)=O)[C@]4(CC)C=CCN5CC[C@]31[C@@H]54)C2 [vinorelbine] | – | –
29 | 2.96 | 74 | – | CC1(C)C(/C=C/C=C/C=C/C=C2\N(CCCCS(=O)(=O)O)c3ccc4ccccc4c3C2(C)C)=[N+](CCCCS(=O)(=O)[O-])c2ccc3ccccc3c21 [indocyanine green acid form] | – | –
30 | 2.77 | 80 | – | CO[C@H]1O[C@H](COS(=O)(=O)O)[C@@H](O[C@@H]2O[C@@H](C(=O)O)[C@@H](O[C@H]3O[C@H](COS(=O)(=O)O)[C@@H](O[C@@H]4O[C@H](C(=O)O)[C@@H](O[C@H]5O[C@H](COS(=O)(=O)O)[C@@H](O)[C@H](O)[C@H]5NS(=O)(=O)O)[C@H](O)[C@H]4O)[C@H](OS(=O)(=O)O)[C@H]3NS(=O)(=O)O)[C@H](O)[C@H]2OS(=O)(=O)O)[C@H](O)[C@H]1NS(=O)(=O)O [Fondaparinux] | – | –
31 | 3.08 | – | 85 | Cyanocobalamin | – | –
32 | 3.99 | – | 71 | CCCCCCCCCCCCCC(=O)OCC(COP(=O)(O)OCC(O)CO)OC(=O)CCCCCCCCCCCCC (racemic) [DL-dimyristoylphosphatidylglycerol] | – | –
